Series [1] concerns Platelet. The series can be described thus: Antiplatelet activity in human washed platelets up to 10 uM incubated for 5 mins measured after 300 secs. It is filed as functional, cell-based.
For series [2], the system named is Platelet. Kind of series: Antiplatelet activity in human platelet rich plasma up to 10 uM incubated for 5 mins measured after 300 secs. Type of series: functional, cell-based.
For series [3], the system named is Mus musculus. Kind of series: Anticoagulant activity in Swiss albino mouse assessed as plasma clotting time at 50 mg/kg, iv measured after 5 hrs (reference value: 175.5 +/- 9.1 sec). It is filed as functional.
For series [4], the system named is Mus musculus. Kind of series: Anticoagulant activity in Swiss albino mouse assessed as increase in activated partial thromboplastin time at 50 mg/kg, iv measured after 5 hrs relative to control. It is filed as functional.
Series [5] relates to Mus musculus. Kind of series: Anticoagulant activity in Swiss albino mouse assessed as increase in prothrombin time at 50 mg/kg, iv measured after 5 hrs relative to control. Type of series: functional.
Series [6] relates to Mus musculus. Kind of series: Anticoagulant activity in Swiss albino mouse assessed as tail bleeding time at 50 mg/kg, iv measured after 5 hrs (reference value: 45.3 +/- 2.5 sec). Type of series: functional.
Series [7] has as its target T1, Prothrombin (Homo sapiens, UniProt P00734). The series can be described thus: Inhibition of thrombin in human washed platelets assessed as reduction in thrombin-induced platelet aggregation after 5 mins.
Series [8] deals with Blood. The series can be described thus: Thrombolytic activity in goat heated blood clot assessed as clot lysed after 3 hrs (reference value: 0.7 +/- 0.2 mg/microM). It is filed as functional, Capra hircus.
Series [9] deals with T1, Prothrombin. The series can be described thus: Inhibition of human thrombin assessed as prolongation of fibrinogen clotting time of thrombin.
Another series has as its system Erythrocyte. Kind of series: Hemolytic activity against human erythrocytes assessed as hemolysis at 2.5 to 50 uM after 90 mins. Type of series: ADME, cell-based. Particulars: 1.5 h.
In series [10] the target is T1, Prothrombin. The series can be described thus: Inhibition of thrombin in human platelet rich plasma assessed as reduction in thrombin-induced platelet aggregation after 5 mins.
Series [11] concerns Blood. Kind of series: Thrombolytic activity in goat heated blood clot assessed as plasmin activation at 1 uM using V0882 as substrate incubated for 20 mins measured for 15 mins in presence of serine protease inhibitor PMSF. Particulars: Capra hircus. Type of series: functional, tissue-based.
Series [12] has as its system Plasma. Kind of series: Anticoagulant activity in human platelet poor plasma assessed as prolongation of calcium clotting time after 3 mins. It is filed as functional, cell-free.
Series [13] has as its system Mus musculus. The series can be described thus: Antithrombotic activity in Swiss albino mouse tail thrombosis model assessed as inhibition of k-carrageenan-induced thrombus formation at 50 mg/kg, po administered for one week followed by k-carrageenan challenge 30 mins post last compound dose and measured after 48 hrs. Type of series: functional.
The test system of series [14] is Mus musculus. The series can be described thus: Antithrombotic activity in Swiss albino mouse tail thrombosis model assessed as inhibition of k-carrageenan-induced thrombus formation at 25 mg/kg, po administered for one week followed by k-carrageenan challenge 30 mins post last compound dose and measured after 24 hrs. It is filed as functional.
Series [15] deals with Mus musculus. Kind of series: Antithrombotic activity in Swiss albino mouse tail thrombosis model assessed as inhibition of k-carrageenan-induced thrombus formation at 12.5 mg/kg, po administered for one week followed by k-carrageenan challenge 30 mins post last compound dose and measured after 48 hrs. It is filed as functional.
Series [16] has as its target T1, Prothrombin. The series can be described thus: Inhibition of human thrombin using T1637 as substrate.
Series [17] relates to Plasma. The series can be described thus: Anticoagulant activity in human platelet poor plasma assessed as increase in prothrombin time at 1.25 to 15 uM after 3 mins. It is filed as functional, cell-free.
Series [18] deals with Blood. Kind of series: Anticoagulant activity in goat whole blood assessed as prolongation of calcium clotting time after 3 mins. The following applies: Capra hircus. It is filed as functional, tissue-based.
The test system of series [19] is Mus musculus. The series can be described thus: Antithrombotic activity in Swiss albino mouse tail thrombosis model assessed as inhibition of k-carrageenan-induced thrombus formation at 50 mg/kg, po administered for one week followed by k-carrageenan challenge 30 mins post last compound dose and measured after 24 hrs. It is filed as functional.
Series [20] relates to Mus musculus. Kind of series: Antithrombotic activity in Swiss albino mouse tail thrombosis model assessed as inhibition of k-carrageenan-induced thrombus formation administered orally for one week followed by k-carrageenan challenge 30 mins post last compound dose and measured after 24 to 72 hrs. Type of series: functional, organism-based.
Series [21] has as its system Blood. The series can be described thus: Thrombolytic activity in goat heated blood clot assessed as plasmin activation at 1 uM using V0882 as substrate incubated for 20 mins measured for 15 mins. It is filed as functional, Capra hircus.
For series [22], the system named is Plasma. Kind of series: Anticoagulant activity in human platelet poor plasma assessed as prolongation of calcium clotting time at 2.5 uM. It is filed as functional, cell-free. Particulars: TDE = time-dependent effect.
Series [23] deals with Coagulation factor X (Homo sapiens) (UniProt P00742). The series can be described thus: Binding affinity to human factor 10a at 1.25 to 15 uM after 3 mins by fluorescence spectrometric analysis.
Chain of Coagulation factor X (Homo sapiens) (P00742 41-179 limits assumed): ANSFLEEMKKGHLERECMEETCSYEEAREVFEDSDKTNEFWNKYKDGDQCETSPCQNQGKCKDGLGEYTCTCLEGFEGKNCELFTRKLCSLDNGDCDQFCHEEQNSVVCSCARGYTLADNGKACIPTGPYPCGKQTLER
Chain of Coagulation factor X (Homo sapiens) (P00742 235-488 limits assumed): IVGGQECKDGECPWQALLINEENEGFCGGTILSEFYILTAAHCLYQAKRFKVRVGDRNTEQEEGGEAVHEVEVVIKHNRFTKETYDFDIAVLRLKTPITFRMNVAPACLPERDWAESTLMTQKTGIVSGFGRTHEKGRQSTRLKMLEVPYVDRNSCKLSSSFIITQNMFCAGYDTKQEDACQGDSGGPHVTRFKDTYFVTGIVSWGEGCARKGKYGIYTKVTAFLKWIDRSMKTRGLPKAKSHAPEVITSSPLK
Series [24] relates to Heterodera schachtii. Kind of series: Binding affinity to human fibrinogen at 1.25 to 15 uM after 3 mins by fluorescence spectrometric analysis.
In series [25] the test system is Heterodera schachtii. Kind of series: Inhibition of human fibrinogen at 5 uM after 120 mins by SDS-PAGE analysis.
Series [26] has as its target T1, Prothrombin. The series can be described thus: Binding affinity to human thrombin by isothermal calorimetric titration method. Background: Isothermal titration calorimetry measures the heat released or taken up as one component is titrated into another.
Series [27] relates to Blood. The series can be described thus: Thrombolytic activity in goat non-heated blood clot assessed as clot lysed after 3 hrs (reference value: 2.1 +/- 0.3 mg/microM). It is filed as functional, Capra hircus.
Series [28] concerns the target Coagulation factor X (Homo sapiens) (UniProt P00742). Kind of series: Inhibition of human factor 10a assessed as prothrombin activation using F3301 as substrate.
Series [29] has as its system Mus musculus. Kind of series: Antithrombotic activity in Swiss albino mouse tail thrombosis model assessed as inhibition of k-carrageenan-induced thrombus formation at 50 mg/kg, po administered for one week followed by k-carrageenan challenge 30 mins post last compound dose and measured after 72 hrs. Type of series: functional.
The subject of series [30] is Mus musculus. Kind of series: Antithrombotic activity in Swiss albino mouse tail thrombosis model assessed as inhibition of k-carrageenan-induced thrombus formation at 25 mg/kg, po administered for one week followed by k-carrageenan challenge 30 mins post last compound dose and measured after 72 hrs. Type of series: functional.
In series [31] the test system is Blood. Kind of series: Thrombolytic activity in goat non-heated blood clot assessed as plasmin activation at 1 uM using V0882 as substrate incubated for 20 mins measured for 15 mins in presence of serine protease inhibitor PMSF. Type of series: functional, tissue-based. The following applies: Capra hircus.
Series [32] relates to Plasma. The series can be described thus: Anticoagulant activity in human platelet poor plasma assessed as prolongation of calcium clotting time at 2.5 uM after 3 mins. Type of series: functional, cell-free.
Series [33] deals with Mus musculus. The series can be described thus: Defibrinogenation activity in Swiss albino mouse plasma at 50 mg/kg, iv measured after 5 hrs. It is filed as functional, organism-based.
The subject of series [34] is Mus musculus. The series can be described thus: Antithrombotic activity in Swiss albino mouse tail thrombosis model assessed as inhibition of k-carrageenan-induced thrombus formation at 25 mg/kg, po administered for one week followed by k-carrageenan challenge 30 mins post last compound dose and measured after 48 hrs. Type of series: functional.
Another series has as its system HEK293. The series can be described thus: Cytotoxicity against HEK293 cells assessed as decrease in cell viability at 50 uM after 24 hrs by MTT assay. Type of series: cell-based. Particulars: human, hek293, 24 h. Background: Tetrazolium dyes change colour on reduction, which living cells bring about.
The target in series [35] is T1, Prothrombin. The series can be described thus: Uncompetitive inhibition of human thrombin using T1637 as substrate by Michaelis-Menten plot analysis.
Series [36] addresses T1, Prothrombin. Kind of series: Binding affinity to human thrombin at 1.25 to 15 uM after 3 mins by fluorescence spectrometric analysis.
In series [37] the test system is Mus musculus. Kind of series: Antithrombotic activity in Swiss albino mouse tail thrombosis model assessed as inhibition of k-carrageenan-induced thrombus formation at 12.5 mg/kg, po administered for one week followed by k-carrageenan challenge 30 mins post last compound dose and measured after 72 hrs. Type of series: functional.
Series [38] concerns the target T1, Prothrombin. The series can be described thus: Inhibition of human thrombin at 7.5 uM using T1637 as substrate preincubated for 30 mins followed by heparin addition by SDS-PAGE analysis.
Series [39] concerns Plasma. The series can be described thus: Anticoagulant activity in human platelet poor plasma assessed as activated partial thromboplastin time at 10 uM after 3 mins (reference value: 14.2 +/- 1.3 sec). Type of series: functional.
Series [40] concerns Mus musculus. Kind of series: Antithrombotic activity in Swiss albino mouse tail thrombosis model assessed as inhibition of k-carrageenan-induced thrombus formation at 12.5 mg/kg, po administered for one week followed by k-carrageenan challenge 30 mins post last compound dose and measured after 24 hrs. Type of series: functional.
Series [41] relates to Blood. The series can be described thus: Thrombolytic activity in goat non-heated blood clot assessed as plasmin activation at 1 uM using V0882 as substrate incubated for 20 mins measured for 15 mins. It is filed as functional, Capra hircus.

Activity calls are given as the source filed them. The calls are words filed in the database; no cut-off is given here.

Take `CC(=O)Oc1ccccc1C(=O)O`: the outcome in the series on Platelet [1] and in the series with Platelet [2] was Active.
For `CC1CNc2c(cccc2S(=O)(=O)N[C@@H](CCCNC(=N)N)C(=O)N2CC[C@@H](C)C[C@@H]2C(=O)O)C1` (some centres not stated) [ARGATROBAN], the Time was 238.6 s in the series with Mus musculus [3] and 143.5 s in the series on Mus musculus [6]. Besides, the “fold change (FC)” value in the series on Mus musculus [4] was 2.3; with Mus musculus [5], 4.
In the case of `CC[C@H](CC[C@@H](C)[C@H]1CC[C@H]2[C@@H]3CC=C4C[C@@H](O)CC[C@]4(C)[C@H]3CC[C@]12C)C(C)C` [BETA-SITOSTEROL], the inhibition entry on Prothrombin [7], on Prothrombin [9], at Prothrombin [10], at Prothrombin [16] and in the series on Mus musculus [20] was “Dose-dependent effect” each time. The Activity in the series with Blood [8] is 1 mg/µM; in the series on Erythrocyte it was “Non-Toxic”; with Plasma [12], “Dose-dependent effect”; with Blood [18], “Dose-dependent effect”; in the series with Blood [21] it was 9.2 mg/µM; in the series on Plasma [22], “Tde”. The values for the Activity in the series with Blood [27], with HEK293 and in the series on Blood [41] were 7.7 mg/µM, “Non-Toxic” and 15.8 mg/µM, respectively. The Time in the series on Mus musculus [3] stood at 193.5 s; in the series on Mus musculus [6], 61 s. Besides, the “fold change (FC)” value in the series with Mus musculus [4] is given as 1.6; in the series with Mus musculus [5], 1.1. For the same compound, the result in the series with Blood [11], in the series on Plasma [17], in the series with Blood [31], in the series with Plasma [32] and on Prothrombin [36] was Active. For the same compound, the results for the inhibition in vivo at 50 mg/kg with Mus musculus [13], in the series with Mus musculus [19] and in the series on Mus musculus [29] were 42.3%, 23.4% and 47.3%, respectively. The inhibition in vivo (commonly the percentage by which the read-out fell short of the control) at 25 mg/kg in the series with Mus musculus [14] was found to be 15.2%; with Mus musculus [30], 36.5%; in the series on Mus musculus [34] it was 31.3%. Besides, the inhibition in vivo at 12.5 mg/kg was found to be 14.5% with Mus musculus [15], 23.2% in the series with Mus musculus [37] and 10.5% in the series with Mus musculus [40]. Also, the outcome (in [23]; in the series with Heterodera schachtii [24]; in the series with Mus musculus [33]) was inactive. For the same compound, the inhibition result (with Heterodera schachtii [25]; in series [28]) was “inactive” each time. On Prothrombin [26], this compound displayed a Ka of 109 M⁻¹. For the same compound, on Prothrombin [35], the affinity corresponds to a Ki of 267 nM. Besides, the inhibition result at Prothrombin [38] was “Active”. Also, in the series with Plasma [39], the APTT was 28.2 s.

These data come from ChEMBL document CHEMBL4266047, “First Report of Plant-Derived β-Sitosterol with Antithrombotic, in Vivo Anticoagulant, and Thrombus-Preventing Activities in a Mouse Model” (J Nat Prod, 2018).
